These are literature values, as cited in US20250208121A1, “MAMMALIAN PER- AND POLYFLUORINATED-ALKYL COMPOUND (PFAS) BINDING PROTEINS AND USES THEREOF” (Allonnia, LLC, priority 2023, published 2025).

The conditions of this series: in humans; previous research.

With `O=C(O)C(F)(F)C(F)(F)C(F)(F)C(F)(F)C(F)(F)C(F)(F)C(F)(F)F` [PFOA, perfluorooctanoic acid], the half-life is roughly 3.8 years.

On to `O=S(=O)(O)C(F)(F)C(F)(F)C(F)(F)C(F)(F)C(F)(F)C(F)(F)C(F)(F)C(F)(F)F` [PFOS, perfluorooctanesulfonic acid], for which the half-life result is “approximately 5.4 years”.
